Assay results from patent publication US20220031684A1, “PROPHYLACTIC EFFICACY OF SEROTONIN 4 RECEPTOR AGONISTS AGAINST STRESS” (THE TRUSTEES OF COLUMBIA UNIVERSITY IN THE CITY OF NEW YORK, priority 2019, published 2022).
Structures can show the parent of a compound that is named as a salt.

Experiments:
Format in all cases: in vivo
BALB/cJRj mice [1] = assay: Elevated plus maze (EPM), acute anxiolytic-like effect
Method: (§1) RS67333 (1.5 mg/kg, i.p.), diazepam (1.5 mg/kg, i.p.), fluoxetine (18 mg/kg, i.p.) were injected 45 min before testing in the Elevated Plus Maze (EPM), the Novelty Suppressed Feeding (NSF) or the Open Field (OF) in three independent cohorts of male BALB/cJRj mice.
(§2) To ensure the selectivity of the anxiolytic-like effects of RS67333, in a new cohort of male BALB/cJRj mice, GR125487 (1.0 mg/kg, i.p.) dissolved in 0.9% NaCl solution, was injected 15 minutes before RS67333 administration (1.5 mg/kg, i.p.). EPM or NSF occurred 45 min after RS67333 administration (A-S1). Behavioral consequences of the co-administration of GR125487+RS67333 were compared to RS67333 alone, diazepam (1.5 mg/kg, i.p.) fluoxetine (18 mg/kg, i.p.) and vehicle groups (0.9% saline solution, i.p.).
(§3) For mPFC drug infusion, two bilateral cannulae (75 μm-diameter silica capillary tubing inserted in 27G stainless steel catheter) were implanted in the mPFC [stereotaxic coordinates in mm from bregma: A=+2.10, L=±0.50, V=−2.60, A, anterior; L, lateral; and V, ventral, according to (A-S10)] under anesthesia (chloral hydrate, 400 mg/kg, i.p.). […] Diazepam (1.5 mg/kg) was used as a positive control.
In a new cohort of male BALB/cJRj mice, p-CPA was administered twice daily (at 0900 and 1700 h) for 3 consecutive days. RS67333 ([…]) and diazepam ([…]) were then intra-mPFC administered 24 h after the final p-CPA administration and behavioral test (EPM) occurred 45 minutes after local infusion.
The EPM is a widely used behavioral assay for rodents and it has been validated to assess the anti-anxiety effects of pharmacological agents (A-S11). This test was performed as described by (A-S1). The maze is a plus-cross-shaped apparatus, with two open arms and two arms closed by walls linked by a central platform 50 cm above the floor. Mice were individually put in the center of the maze facing an open arm and were allowed to explore the maze during 5 min for the behavioral consequences of an acute systemic administration or mPFC infusion and during 6 min for the optogenetic experiments. The time spent in and the numbers of entries into the open arms were used as an anxiety index. All parameters were measured using a videotracker (EPM3C, Bioseb, Vitrolles, France).

BALB/cJRj mice [2] = assay: Novelty suppressed feeding (NSF), acute anxiolytic-like effect; settings: for lag for feeding in the NSF: single dose 1.5 mg/kg, 72 hours after the injection
Method: as §1, §2, §3
The NSF is a conflict test that elicits competing motivations: the drive to eat and the fear of venturing into the center of a brightly lit arena. The latency to begin eating is used as an index of anxiety/depression-like behavior, because classical anxiolytic drugs as well as chronic antidepressants decrease this measure. The NSF test was carried out during a 10 min period as previously described (A-S12). Briefly, the testing apparatus consisted of a plastic box (50×50×20 cm), the floor of which was covered with approximately 2 cm of wooden bedding. Twenty-four hours prior to behavioral testing, all food was removed from the home cage. At the time of testing, a single pellet of food (regular chow) was placed on a white paper platform positioned in the center of the box. Each animal was placed in a corner of the box, and a stopwatch was immediately started. The latency to eat (defined as the mouse sitting on its haunches and biting the pellet with the use of forepaws) was timed. Immediately afterwards, the animal was transferred to its home cage, and the amount of food consumed by the mouse in the subsequent 5 min was measured, serving as a control for change in appetite as a possible confounding factor.

BALB/cJRj mice [3] = assay: Open field paradigm (OF), acute anxiolytic-like effect; settings: for percent time spent in Center (OF) vs vehicle: male BALB/cJRj, RS67333 1.5, diazepam 1.5, fluoxetine 18 mg/kg; for time spent in the center of the OF: single dose 1.5 mg/kg, 48 hours after the injection
Description: Motor activity was quantified in four 39×39 cm perpex plastic open field boxes (Vivo-tech/Ugo Basile, Salon de Provence, France). The apparatus was illuminated from the ground with special designed 40×40 cm Infra-red backlights (monochromatic wavelength 850 nm high homogeneity, Vivo-tech, Salon de Provence, France). Activity chambers were monitored by four black and white cameras with varifocal optics and polarizing filters (Vivo-tech, Salon de Provence, France). For optogenetic experiments, optical bandpass filters were specifically selected to improve tracking detection. The whole set-up was controlled using ANYMAZE version 6 video tracking software (Stoelting Co/Vivo-tech, Salon de Provence, France). Dependent measures were time in the center over a 10 min for systemic administration or 6 min test period for optogenetic experiments, total ambulatory distance and ambulatory distance traveled in the center divided by total distance.

BALB/cJRj mice [4] = assay: Splash Test after single dose; settings: single systemic dose 1.5 mg/kg, 45 minutes before test
Method: Having shown that RS 67333 was provided with prophylactic properties, we subsequently sought to gain knowledge of this molecule in the long term, i.e. to find out whether the anxiolytic response brought about by RS 67333 is sustainable over time. In order to achieve this, the BALB/cJRj mice were systemically injected with a single dose of RS 67333 (1.5 mg/kg) or diazepam (1.5 mg/kg), 45 minutes before performing the Splash Test. The following day, the mice underwent the EPM without having received another dose of RS, and then at the open field 24 hours later, and, finally, to NSF 24 hours after the open field (FIG. 15A).

BALB/cJRj mice [5] = assay: Elevated plus maze (EPM), acute anxiolytic-like effect; settings: single dose 1.5 mg/kg; 24 hours after the injection

SMILES	time and percent time spent in the open arms (EPM) vs vehicle (BALB/cJRj mice [1]; intra-mPFC infusion 45 min before testing, RS67333 0.5 pg/side (1 pg), diazepam 1.5 pg/side, HCl)	time and percent time spent in the open arms (EPM) vs vehicle (BALB/cJRj mice [1]; male BALB/cJRj, i.p. 45 min before testing, RS67333 1.5 mg/kg, diazepam 1.5 mg/kg)	latency to feed (NSF) vs vehicle (BALB/cJRj mice [2]; intra-mPFC infusion of RS67333 45 min before testing)	latency to feed (NSF) vs vehicle (BALB/cJRj mice [2]; male BALB/cJRj, i.p. 45 min before testing, RS67333 1.5, diazepam 1.5, fluoxetine 18 mg/kg)	lag for feeding in the NSF (BALB/cJRj mice [2])	percent time spent in Center (OF) vs vehicle (BALB/cJRj mice [3]; i.p. 45 min before testing)	time spent in the center of the OF (BALB/cJRj mice [3])	grooming time (Splash Test) (BALB/cJRj mice [4])	number of grooming episodes (Splash Test) (BALB/cJRj mice [4])	anxiolytic effects in the EPM (BALB/cJRj mice [5])	ratio of ambulatory distance in the open arms divided by total distance (EPM) vs vehicle (BALB/cJRj mice [1]; i.p. 45 min before testing, RS67333 1.5 mg/kg, diazepam 1.5 mg/kg)	time and percent time spent in the open arms (EPM) vs vehicle (BALB/cJRj mice [1]; intra-mPFC infusion 45 min before testing, RS67333 0.5 pg/side (1 pg), diazepam 1.5 pg/side)	time and percent time spent in the open arms (EPM) vs vehicle (BALB/cJRj mice [1]; male BALB/cJRj, i.p. 45 min before testing, RS67333 1.5 mg/kg, diazepam 1.5 mg/kg, hydrochloride)	drug-induced increase in time, percent time in open arms and ratio open arms/total distance (EPM) in 5-HT-depleted p-CPA mice (BALB/cJRj mice [1]; p-CPA pre-treatment 3 days, intra-mPFC RS67333 0.5 pg/side or diazepam 1.5 pg/side)	latency to feed (NSF) vs vehicle (BALB/cJRj mice [2]; male BALB/cJRj, i.p. 45 min before testing, RS67333 1.5, diazepam 1.5, fluoxetine 18 mg/kg, hydrochloride)	ratio of ambulatory distance in the center divided by total distance (OF) vs vehicle (BALB/cJRj mice [3]; i.p. 45 min before testing, RS67333 1.5, diazepam 1.5 mg/kg)
CCCCN1CCC(CCC(=O)c2cc(Cl)c(N)cc2OC)CC1.Cl [RS-67,333, 1-(4-amino-5-chloro-2-methoxyphenyl)-3-[1(n-butyl)-4-piperidinyl]-1-propanone HCl]	significantly increased time and percent time spent in the open arms	increased	decreased latency to feed	decreased the latency to feed	reduced the lag for feeding	increase	increased the time spent in the center	increased the grooming time	without affecting the number of episodes	have not identified the anxiolytic effects expected	–	–	–	–	–	–
CN1C(=O)CN=C(c2ccccc2)c2cc(Cl)ccc21 [diazepam, Diazepam hydrochloride]	–	–	–	–	have not been able to observe any long-term activity	increase	have not been able to observe any long-term activity	not identify any effect in the Splash Test	–	have not been able to observe any long-term activity	significantly increased	increased time, percent time spent in the open arms	significantly increased time and percent time spent in the open arms	abolished	decreased the latency to feed	significantly increased
